Reference: US7893077B2, “Bisaryl-sulfonamides” (Amgen Inc., priority 2004, dated 2011)

Biological target: T1, PPARγ (Homo sapiens, UniProt P37231)
T1 construct: made in house
T1 sequence (P37231 1-505): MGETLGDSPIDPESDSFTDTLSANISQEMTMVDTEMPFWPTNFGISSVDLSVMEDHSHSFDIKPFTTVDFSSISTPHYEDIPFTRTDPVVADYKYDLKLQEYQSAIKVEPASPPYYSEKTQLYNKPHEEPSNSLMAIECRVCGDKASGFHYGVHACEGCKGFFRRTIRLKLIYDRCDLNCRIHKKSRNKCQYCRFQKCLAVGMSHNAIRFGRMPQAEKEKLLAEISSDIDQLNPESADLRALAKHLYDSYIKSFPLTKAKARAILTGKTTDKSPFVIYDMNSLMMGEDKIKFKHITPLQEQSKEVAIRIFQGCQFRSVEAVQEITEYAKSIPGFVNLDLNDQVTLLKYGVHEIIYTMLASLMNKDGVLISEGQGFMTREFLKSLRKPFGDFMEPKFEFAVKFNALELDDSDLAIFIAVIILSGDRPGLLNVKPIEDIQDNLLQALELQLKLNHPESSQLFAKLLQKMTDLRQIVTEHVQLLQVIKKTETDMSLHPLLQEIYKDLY
Experiment: PPARγ ligand binding assay utilizing [3H]-BRL 49653 as the radioligand (filtration)
Conditions: concentration required to reduce by 50% the specific binding of [3H]-BRL 49653
Description: The compounds of the present invention can be evaluated for modulation of the PPARγ receptor using assays such as those described in Jiang, et al., Nature 391:82-86 (1998), Ricote, et al., Nature 391:79-82 (1998) and Lehmann, et al., J. Biol. Chem. 270(12): 12953-12956 (1995). Alternatively, the compounds can be evaluated for their ability to displace radiolabeled BRL 49653 from a PPARγ-GST fusion protein as follows:
PPARγ-GST fusion protein (prepared according to standard procedures), [^3H]-BRL 49653 having 50 Ci/mmol specific activity, Polyfiltronics Unifilter 350 filtration plate and glutathione-Sepharose® beads (from Pharmacia: washed twice with 10× binding buffer in which BSA and DTI can be left out).
Binding buffer (10 mM Tris-HCl, pH 8.0, 50 mM KCl, 10 mM DTT, 0.02% BSA and 0.0 1% NP-40) is added in 80-μL amounts to the wells of the filtration plate. The test compound is then added in 10 μL of DMSO. The PPARγ-GST fusion protein and radiolabeled BRL compound are premixed in binding buffer containing 10 mM DTT and added in 10-μL amounts to the wells of the plate to provide final concentrations of 1 µg/well of PPARγ-GST fusion protein and 10 nM [^3H]-BRL 49653 compound. The plate is incubated for 15 min. Glutathione-agarose bead is added in 50 μL of binding buffer, and the plate is vigorously shaken for one hour. The plate is washed four times with 200 μL/well of binding buffer (without BSA and DTT). The bottom of the plate is sealed and 200 μL/well of scintillation cocktail is added. The top of the plate is then sealed and the radioactivity is determined.
IC50 values are defined as the concentration of test compounds required to reduce by 50% the specific binding of [^3H]-BRL 49653 and are represented by (+)<30 μM; (++)<10 μM; (+++)<1 μM.

Row | Compound | IC50
1 | CCCCCc1nc(NS(=O)(=O)c2ccc(Cl)cc2)ncc1Sc1ccc(S(=O)(=O)N2CCCCC2)cc1 [Compound 48, 4-Chloro-N-{4-pentyl-5-[4-(piperidine-1-sulfonyl) -phenylsulfanyl]-pyrimidin-2-yl}-benzenesulfonamide] | < 1 µM
2 | Cc1nc(NS(=O)(=O)c2ccc(Cl)cc2Cl)ncc1Sc1ccc(S(=O)(=O)N2CCCCC2)cc1 [Compound 49, 2,4-Dichloro-N-{4-methyl-5-[4-(piperidine-1-sulfonyl) -phenylsulfanyl]-pyrimidin-2-yl}-benzenesulfonamide] | < 10 µM
3 | Cc1nc(NS(=O)(=O)c2ccc(C(F)(F)F)cc2Cl)ncc1Sc1ccc(S(=O)(=O)N2CCCCC2)cc1 [Compound 50, 2-Chloro-N-{4-methyl-5-[4-(piperidine-1-sulfonyl) -phenylsulfanyl]-pyrimidin-2-yl}-4-trifluoromethyl-benzenesulfonamide] | < 10 µM
4 | Cc1nc(NS(=O)(=O)c2ccc(Cl)cc2)ncc1Sc1ccc(S(=O)(=O)N2CCCCC2)cc1 [Compound 51, 4-Chloro-N-{4-methyl-5-[4-(piperidine-1-sulfonyl) -phenylsulfanyl]-pyrimidin-2-yl}-benzenesulfonamide] | < 10 µM
5 | Cc1nc(NS(=O)(=O)c2ccc(Cl)cc2Cl)ncc1Sc1ccc(S(=O)(=O)N2CCOCC2)cc1 [Compound 52, 2,4-Dichloro-N-{4-methyl-5-[4-(morpholine-4-sulfonyl) -phenylsulfanyl]-pyrimidin-2-yl}-benzenesulfonamide] | < 10 µM
6 | Cc1nc(NS(=O)(=O)c2ccc(C(F)(F)F)cc2Cl)ncc1Sc1ccc(S(=O)(=O)N2CCOCC2)cc1 [Compound 53, 2-Chloro-N-{4-methyl-5-[4-(morpholine-4-sulfonyl) -phenylsulfanyl]-pyrimidin-2-yl}-4-trifluoromethyl-benzenesulfonamide] | < 10 µM
7 | Cc1nc(NS(=O)(=O)c2ccc(Cl)cc2Cl)ncc1Oc1ccc(S(=O)(=O)N2CCOCC2)cc1 [Compound 54, 2,4-Dichloro-N-{4-methyl-5-[4-(morpholine-4-sulfonyl) -phenoxy]-pyrimidin-2-yl}-benzenesulfonamide] | < 30 µM
8 | Cc1nc(NS(=O)(=O)c2ccc(C(F)(F)F)cc2Cl)ncc1Oc1ccc(S(=O)(=O)N2CCOCC2)cc1 [Compound 55, 2-Chloro-N-{4-methyl-5-[4-(morpholine-4-sulfonyl) -phenoxy]-pyrimidin-2-yl}-4-trifluoromethyl-benzenesulfonamide] | < 10 µM
9 | Cc1nc(NS(=O)(=O)c2ccc(Cl)cc2)ncc1Oc1ccc(S(=O)(=O)N2CCOCC2)cc1 [Compound 56, 4-Chloro-N-{4-methyl-5-[4-(morpholine-4-sulfonyl) -phenoxy]-pyrimidin-2-yl}-benzenesulfonamide] | < 30 µM
10 | Cc1nc(NS(=O)(=O)c2ccc(Cl)cc2Cl)ncc1Sc1ccc2ccccc2c1 [Compound 57, 2,4-Dichloro-N-[4-methyl-5-(naphthalen-2-ylsulfanyl)-pyrimidin-2-yl]-benzenesulfonamide] | < 10 µM
11 | Cc1nc(NS(=O)(=O)c2ccc(C(F)(F)F)cc2Cl)ncc1Sc1ccc2ccccc2c1 [Compound 59, 2-Chloro-N-[4-methyl-5-(naphthalen-2-ylsulfanyl)-pyrimidin-2-yl]-4-trifluoromethyl-benzenesulfonamide] | < 10 µM
12 | Cc1nc(NS(=O)(=O)c2ccc(Cl)cc2Cl)ncc1Oc1ccc(Cl)c(Cl)c1 [Compound 60, 2,4-Dichloro-N-[5-(3,4-dichloro-phenoxy)-4-methyl-pyrimidin-2-yl]-benzenesulfonamide] | < 10 µM

Further lines, results first:

Row | IC50 | Compound
13 | < 1 µM | Cc1cc(S(=O)(=O)Nc2ccc(Sc3ccc(S(=O)(=O)N4CCCCC4)cc3)c(C)n2)c(Cl)cc1Cl [Compound 61, 2,4-Dichloro-5-methyl-N-{6-methyl-5-[4-(piperidine-1-sulfonyl)-phenylsulfanyl]-pyridin-2-yl}-benzenesulfonamide]
14 | < 1 µM | Cc1cc(S(=O)(=O)Nc2cc(C)c(Sc3ccc(S(=O)(=O)N4CCCCC4)cc3)cn2)c(Cl)cc1Cl [Compound 62, 2,4-Dichloro-5-methyl-N-{4-methyl-5-[4-(piperidine-1-sulfonyl)-phenylsulfanyl]-pyridin-2-yl}-benzenesulfonamide]
15 | < 1 µM | Cc1cc(NS(=O)(=O)c2ccc(Cl)cc2Cl)ncc1Sc1ccc(S(=O)(=O)N2CCCCC2)cc1 [Compound 63, 2,4-Dichloro-N-{4-methyl-5-[4-(piperidine-1-sulfonyl) -phenylsulfanyl]-pyridin-2-yl}-benzenesulfonamide]
16 | < 1 µM | Cc1cc(NS(=O)(=O)c2ccc(C(F)(F)F)cc2Cl)ncc1Sc1ccc(S(=O)(=O)N2CCCCC2)cc1 [Compound 64, 2-Chloro-N-{4-methyl-5-[4-(piperidine-1-sulfonyl) -phenylsulfanyl]-pyridin-2-yl}-4-trifluoromethyl-benzenesulfonamide]
17 | < 1 µM | Cc1nc(NS(=O)(=O)c2ccc(Cl)cc2Cl)ccc1Sc1ccc(S(=O)(=O)N2CCCCC2)cc1 [Compound 65, 2,4-Dichloro-N-{6-methyl-5-[4-(piperidine-1-sulfonyl) -phenylsulfanyl]-pyridin-2-yl}-benzenesulfonamide]
18 | < 1 µM | Cc1nc(NS(=O)(=O)c2ccc(C(F)(F)F)cc2Cl)ccc1Sc1ccc(S(=O)(=O)N2CCCCC2)cc1 [Compound 66, 2-Chloro-N-{6-methyl-5-[4-(piperidine-1-sulfonyl) -phenylsulfanyl]-pyridin-2-yl}-4-trifluoromethyl-benzenesulfonamide]
19 | < 1 µM | Cc1cc(S(=O)(=O)Nc2ccc(Sc3ccc(S(=O)(=O)N4CCCCC4)cc3)cn2)c(Cl)cc1Cl [Compound 67, 2,4-Dichloro-5-methyl-N-{5-[4-(piperidine-1-sulfonyl) -phenylsulfanyl]-pyridin-2-yl}-benzenesulfonamide]
20 | < 1 µM | O=S(=O)(Nc1ccc(Sc2ccc(S(=O)(=O)N3CCCCC3)cc2)cn1)c1ccc(Cl)cc1Cl [Compound 68, 2,4-Dichloro-N-{5-[4-(piperidine-1-sulfonyl)-phenylsulfanyl]-pyridin-2-yl}-benzenesulfonamide]
21 | < 1 µM | O=S(=O)(Nc1ccc(Sc2ccc(S(=O)(=O)N3CCCCC3)cc2)cn1)c1ccc(C(F)(F)F)cc1Cl [Compound 69, 2-Chloro-N-{5-[4-(piperidine-1-sulfonyl)-phenylsulfanyl]-pyridin-2-yl}-4-trifluoromethyl-benzenesulfonamide]
22 | < 1 µM | COC(=O)c1nc(NS(=O)(=O)c2ccc(Cl)cc2Cl)ccc1Sc1ccc(S(=O)(=O)N2CCCCC2)cc1 [Compound 70, 6-(2,4-Dichloro-benzenesulfonylamino)-3-[4-(piperidine-1-sulfonyl)-phenylsulfanyl]-pyridine-2-carboxylic acid methyl ester]
23 | < 10 µM | O=C(O)c1nc(NS(=O)(=O)c2ccc(Cl)cc2Cl)ccc1Sc1ccc(S(=O)(=O)N2CCCCC2)cc1 [Compound 71, 6-(2,4-Dichloro-benzenesulfonylamino)-3-[4-(piperidine-1-sulfonyl)-phenylsulfanyl]-pyridine-2-carboxylic acid]
24 | < 1 µM | CON(C)C(=O)c1nc(NS(=O)(=O)c2ccc(Cl)cc2Cl)ccc1Sc1ccc(S(=O)(=O)N2CCCCC2)cc1 [Compound 72, 6-(2,4-Dichloro-benzenesulfonylamino)-3-[4-(piperidine-1-sulfonyl)-phenylsulfanyl]-pyridine-2-carboxylic acid methoxy-methyl-amide]
25 | < 1 µM | CCCC(=O)c1nc(NS(=O)(=O)c2ccc(Cl)cc2Cl)ccc1Sc1ccc(S(=O)(=O)N2CCCCC2)cc1 [Compound 73, N-{6-Butyryl-5-[4-(piperidine-1-sulfonyl)-phenylsulfanyl]-pyridin-2-yl}-2,4-dichloro-benzenesulfonamide]
26 | < 1 µM | Cc1cc(NS(=O)(=O)c2ccc(C(F)(F)F)cc2Cl)ncc1Sc1ccc(S(=O)(=O)N2CCOCC2)cc1 [Compound 74, 2-Chloro-N-{4-methyl-5-[4-(morpholine-4-sulfonyl) -phenylsulfanyl]-pyridin-2-yl}-4-trifluoromethyl-benzenesulfonamide]
